{
  "source": "patent US20240376087A1",
  "about": "“PYRAZOLE AMIDE BASED COMPOUNDS AND USES AGAINST BREAST CANCER THEREOF” (COUNCIL OF SCIENTIFIC AND INDUSTRIAL RESEARCH AN INDIAN …, priority 2021, published 2024)",
  "test_system": "MDA MB 231 cells",
  "assay": "RNA sequencing whole transcriptome analysis and gene set enrichment",
  "assay_type": "cell-based, human",
  "procedure": "Toral RNA was isolated from the cells using RNeasy mini kit. 15 μg of cellular RNA was quality assessed (Bioanalyzer from Agilent Technologies) and used for mRNA library preparation. The mRNAs were fragmented, and the first strand of cDNA was synthesized from the cleaved RNA using random primers followed by second strand cDNA synthesis. The purified cDNA templates were enriched by PCR amplification to generate cDNA libraries. The developed libraries were presented to RNA sequencing facility and two rapid single-read 50 illumina HiSeq sequencing runs were performed. Raw reads from separate lanes of the same sample were merged for mapping. RNA sequencing was performed at Eurofins Genomics India Pvt. Ltd., Bengaluru 560048, Karnataka, India.\nThe output raw FASTQ files were analyzed using various tools of Galaxy platform to extract the differentially expressed genes as follows. The quality of the reads was analyzed using FastQC (Galaxy Version 0.72+galaxy1). The quality check reports were aggregated using MultiQC (Galaxy Version 1.9+galaxy1). Cutadapt (Galaxy Version 1.16.6) was used for adapter removal and filtering using threshold of minimum read length 20 and minimum quality (phred score) 20. Again, the quality was checked, and results were aggregated. The cleaned reads were mapped to a reference genome (Homo_sapiens.GRCh38.dna_sm.primary_assembly.fa.gz) and annotation file (Homo_sapiens.GRCh38.104.gtf.gz) using HISAT2 (Galaxy Version 2.1.0+galaxy7), a splice-aware alignment program. The output bam files are processed using StringTie (Galaxy Version 2.1.1) to assemble and quantitate RNA-Seq alignments into potential transcript. Later the Deseq2 (Galaxy Version 2.11.40.6+galaxy1) was used to determine normalized differentially expressed genes from the Stringtie output count tables. […] These differentially expressed genes were filtered using Filter (Galaxy Version 1.1.1) to extract significant ones by adding a filter of q-value<=0.05 and log 2 fold change >1.\nThe functional annotation (biological process, molecular function and pathways) was considered significant at False discovery rate (FDR B&H)<0.05. GSEA Preranked tool of standalone R program GSEA 4.1.0 was used to perform Gene Set Enrichment Analysis (GSEA) on ranked (log fold change based) list of total DEGs against CP: Canonical pathways (a pre-defined collection of 2922 gene sets) of Molecular Signatures Database (MSigDB). The enriched pathways with FDR qvalue less than 0.25 were considered significant.",
  "key": {"[1]": {"details": "whole transcriptome, q-value<=0.05 and log 2 fold change >1"}},
  "data": [
    {"molecule": "COc1cc(-c2cc(C(=O)NCc3cc(C(F)(F)F)cc(C(F)(F)F)c3)[nH]n2)cc(OC)c1OC", "note": "[I-8, N-(3,5-bis(trifluoromethyl)benzyl)-3-(3,4,5-trimethoxyphenyl)-1H-pyrazole-5-carboxamide]", "values": [
      {"measurement": "downregulated signaling pathways (gene set enrichment analysis)", "setting": "downregulated genes vs canonical gene sets", "result": "downregulated many signaling pathways that are critical in the cell death process"},
      {"measurement": "upregulated signaling pathways (gene set enrichment analysis)", "setting": "upregulated genes vs canonical gene sets", "result": "upregulation of signaling pathways of ER stress induced apoptosis, UPR response, autophagy, HDAC acetylation"},
      {"measurement": "number of downregulated genes", "setting": "[1]", "result": 1642, "unit": "genes"},
      {"measurement": "number of upregulated genes", "setting": "[1]", "result": 1337, "unit": "genes"}
    ]}
  ]
}
